# Experimental data taken from US20260317328A1, “SMALL MOLECULES FOR ADOPTIVE T-CELL THERAPY (ACT) THROUGH ACTIVATION OF THE mTOR SIGNALLING PATHWAY, PROCESS FOR PREPARATION THEREOF” (COUNCIL OF SCIENTIFIC & INDUSTRIAL RESEARCH, priority 2023, published 2026).
# Experiments:
# [1] = Lipophilicity assay (n-octanol / phosphate buffer); format: physicochemical; settings: pH 7.4, 1-octanol/10 mM sodium phosphate buffer, room temperature; criteria: <0 low, 0-1 moderate, >2 high lipophilicity
# Description: 1.56 g NaH2PO4O·2H2O was dissolved in 0.5 L water in a 1 L beaker. After adjusting pH to 7.4 using NaOH solution, the volume was made up to 1 L. Equal volumes of sodium phosphate buffer (10 mM, pH 7.4) and n-octanol were added to a separation funnel and mixed thoroughly by shaking and inverting the funnel several times. The two layers were allowed to separate for overnight and then dispensed in two separate glass bottles. 10 mM stock solution was prepared in 100% DMSO and stored at 4° C. 495 μL of organic phase (1-octanol) was added to each well of a 2 mL deep well plate, followed by 495 μL of buffer and 10 μL of test substance was added. The plate was incubated for 3 hr at room temperature on a plate shaker at 500 rpm. After incubation, the samples were allowed to equilibrate for 20 min and then centrifuged at 4000 rpm for 30 min for complete phase separation and analysed by LC-UV.
# Log D=Log (area of octanol/area of buffer)
# Plasma stability assay = format: in vitro ADME; settings: human, 37° C., 120 mins
# Description: 1 mM Stock of test compound was prepared from 10 mM initial stock solution of compounds by diluting 10 μL of 10 mM stock with 90 μL of DMSO. Then 10 μL of 1 mM stock was diluted with 90 μL of DMSO to give 100 μM concentration. The frozen plasma was thawed at room temperature and centrifuged at 1400 rpm at 4° C., for 15 minutes. Approximately 90% of the clear supernatant fraction was transferred to a separate tube and was used for the assay. Final working stock of 1 μM was prepared by diluting 3 μL of 100 μM with 297 μL of plasma. Plasma containing the test compound was incubated for 120 mins at 37° C. in shaker with 500 rpm. 50 μL of aliquot of sample at 0, 15, 30, 60 and 120 minutes were precipitated with 150 μL of acetonitrile containing internal standard and centrifuged at 4000 rpm at 4° C. for 20 minutes. 120 μL of supernatant was diluted with 120 μL of water and analyzed by LC-MS/MS.
# CD8^+ T cells [2] = test: Initial small molecule screening: intracellular cytokine staining of CD8+ T cells activated with each small molecule; format: cell-based, mouse
# Text: To select the small molecule capable of inducing IFN-γ production in CD8^+ T cells, […] CD3^+ sorted naïve T cells were activated with each small molecule for 72 hrs followed by an intracellular cytokine staining.
# CD3^+ T cells were isolated from human peripheral blood by density-gradient (Ficoll gradient) centrifugation followed by a negative selection using Dynabeads Untouched Human T Cells Kit, resulting in a typically >90% pure CD3^+ T cell population.
# (§1) Purified naïve CD3^+ T cells were activated either in presence of Comp 19 ([…]) or vehicle (DMSO) with plate-bound anti-CD3 ([…]) and anti-CD28 ([…]) for 72 h in RPMI-1640 medium containing 10% FBS, 50 µM R-ME, 50 U/mL penicillin and […] streptomycin and 100 IUmL^−1 rIL-2.
# Measurement of cytokine production: To assess IFN-γ and TNF-α secretion by intracellular cytokine staining, cells (0.2×10^6) were treated for 4 hours with restimulation cocktail containing phorbolmyristate acetate (50 ng ml^−1) and ionomycin (500 ng ml^−1), brefeldin A (to block anterograde protein transport). Then cells were stained for surface markers and simultaneously labeled with Live/Dead Yellow Fluorescent Dye for 20 min at 4° C. Next cells were washed with PBS, fixed for 20 min at 4° C. with fixation/permeabilization solution, washed with permeabilization buffer, finally stained for 30 min with anti-IFN-γ and anti-TNF-α mAb in dark at 4° C., washed with PBS and analyzed.
# EL4-OVA tumors = test: Adoptive transfer of OT1 T cells into mice bearing EL4-OVA tumors; format: in vivo, mouse
# Description: Given the functional fitness of Comp-19 treated CD8^+ T cells in vitro, we, next, sought to determine their antitumor potential upon adoptive transfer into mice bearingEL4-OVA tumors.
# EL-4.OVA tumor cells (1×10^6) or B16-F10 melanoma (0.5×10^6 cells) were injected subcutaneously into the left flank of 7-10 weeks old C57BL/6 mice. After 9 days of tumor establishment, ex vivo activated OT-1 T cells at 0.5×10^6 cells/mouse were adoptively transferred intravenously into tumor-bearing recipients.
# mTORC1 = mTORC1 activity in CD8+ T cells: pS6 and p4EBP1 levels (flow cytometry, western blot); format: cell-based
# Text: Several transcription factors and signaling pathways coordinately support and regulate the metabolic shifting of naïve T cell after activation. Downstream of co-stimulation and PI3K-AKT signaling, mammalian target of Rapamycin (mTOR) kinase pathway helps in integrating multiple signals, plays a significant role for cell cycle entry and coordinates early anabolic changes that occur upon T cell activation mTOR complex 1 (mTORC1) promote aerobic glycolysis and support effector T cell proliferation, growth, and cytokine production. Translation repressor protein 4E-BP1 inhibits cap-dependent translation by binding to the translation initiation factor eIF4E. Phosphorylation of 4E-BP1 by mTORC1 disrupts this interaction and results in activation of cap-dependent translation. On the contrary, phosphorylation of S6 ribosomal protein correlates with an increase in translation of mRNA transcripts that contain an oligopyrimidine tract in their 5′ untranslated regions. Activation of mTORC1 increases protein translation via direct phosphorylation of 4E-BP1 and p70S6 kinase. Since Comp-19 was proposed as mTORC1 activator, next we sought to check expression level ofpS6 and p4EBP1 level inside CD8^+ T cells activated in presence/absence of Comp-19. […] CD8^+ T cells treated with Comp-19 (FIG. 3A-C).
# as §1
# pS6 Staining: Intracellular phospho ribosomal protein S6 (pS6) were stained using Transcription factor Phospho Buffer set. Single cell suspension was prepared and cells were washed with 1×PBS. […] Finally, cells were washed, dissolved in PBS and analysed by flow cytometry.
# Cell lysates from 4×10^6 cells per condition were prepared in RIPA buffer containing protease inhibitor cocktail. Protein concentrations were determined with a serial dilution standard curve of Bradford assay. […]
# CD8^+ T cells [3] = test: Glucose uptake assay (2NBDG) in activated CD8+ T cells; format: cell-based; settings: naïve T cells activated in presence of compound; 2NBDG (FIG. 2A)
# Text: (§2) Distinct T cell states require specific metabolic programs compatible to their functional demands. The transition between various T cell states is accompanied by active rewiring of cellular metabolism and epigenetic landscape. Oxidative phosphorylation is the main biochemical pathway that drives metabolism of naïve T cell. Upon activation, naïve T cells rapidly reprogram their metabolic networks to comply with the demands of robust clonal expansion and epigenetic remodeling. So, TCR activation and co-stimulation initiate a set of signaling cascades that collectively license a T cell to exit quiescence. Stimulation of the TCR promotes signaling through the ERK/MAPK pathways and calcium flux, activation of the PI3K-AKT-mTOR axis which subsequently resulting in T cell activation. This conversion to an activated effector T cell is marked by enhanced glucose uptake, engagement of aerobic glycolysis, increased oxidative phosphorylation. So, we assessed glucose uptake level by activated CD8^+ T cells using fluorescent labeled deoxy-glucose analogue, 2NBDG. […]
# Glucose uptake assay: Glucose uptake by activated T cells was evaluated using fluorescent labeled deoxy-glucose analogue, 2NBDG. […]
# [4] = tested on: Human naïve CD8^+ T cells; test: EC50 for IFNγ production in human naïve CD8+ T cells; format: cell-based; settings: 72 hrs, doses 500 pM to 50 μM, N=3 for each dose
# Description: Human naïve CD8^+ T cells were sorted from PBMC and activated in presence of Comp 19 in the different doses (500 pM, 1 nM, 100 nM, 500 nM, 1 μM, 5 μM, 10 μM, 50 μM). After 72 hrs, activated CD8+ T cells were restimulated and stained for IFNγ production. Percent of CD8+ T cell producing IFNγ in the previously mentioned doses of Comp 19 was normalized to a vehicle control (DMSO) treated group. The optimum dosage of Comp 19 for inducing effector cytokine (IFNγ) production from CD8^+ T cells is 10 μM. […] (N=3 for each dose of Comp 19).
# Human peripheral blood mononuclear cells (PBMC) were obtained from fully anonymized whole blood bags (age & sex related information were not provided) collected from healthy volunteer blood donors at NRS Medical College & Hospital, Kolkata, India. […]
# (§3) Measurement of cytokine production: To assess IFN-γ and TNF-α secretion by intracellular cytokine staining, cells (0.2×10^6) were treated for 4 hours with restimulation cocktail containing phorbolmyristate acetate (50 ng ml^−1) and ionomycin (500 ng ml^−1), brefeldin A (to block anterograde protein transport). […] Next cells were washed with PBS, fixed for 20 min at 4° C. with fixation/permeabilization solution, washed with permeabilization buffer, finally stained for 30 min with anti-IFN-γ and anti-TNF-α mAb in dark at 4° C., washed with PBS and analyzed.
# CD8^+ T cells [5] = test: Effector cytokine (IFN-γ, TNF-α) production by activated CD8+ T cells; format: cell-based; settings: naïve T cells activated in presence of compound (FIG. 2B-E)
# Text: as §2, with “Stimulation of the TCR promotes signaling through the ERK/MAPK pathways and calcium flux, activation of the PI3K-AKT-mTOR axis which subsequently resulting in T cell activation. This conversion to an activated effector T cell is marked by enhanced glucose uptake, engagement of aerobic glycolysis, increased oxidative phosphorylation.” left out
# as §3
# [6] = Metabolic stability using human liver microsomes (HLM); format: in vitro ADME; settings: pH 7.4, read-out: % QH (Well stirred model)
# Description: 1 mM stock solution of test compound was prepared in DMSO and diluted with Acetonitrile:Water (1:1) to get a 100 μM working concentration. 100 mL of Milli Q water was added to K2HPO4 (1.398 g) and KH2PO4 (0.27 g) to get final pH 7.4 solution of potassium phosphate buffer. […] The above mixture was pre incubated for 15 minutes at 37° C. After pre incubation, 32.5 μL of the mixture was added to 17.5 μL of buffer, this was incubated for 60 minutes at 37° C. [60 min Without Cofactor (NADPH)]. 16.25 μL of the pre incubated mixture and 8.75 μL of cofactor was added to 150 μL of acetonitrile containing internal standard [0 min Sample]. 62 μL of cofactor was added to remaining pre incubation mixture [Incubation mixture]. 25 μL of incubation mixture at 0, 5, 15, 30, 60 min and 60 min without cofactor were precipitated with 150 μL of acetonitrile containing internal standard, vortexed and centrifuged at 4000 rpm at 4° C. for 20 minutes. 120 μL of supernatant was diluted with 120 μL of water and analyzed by LC-MS/MS [sample preparation].
# [7] = 10 μM, 72 hrs, compared to vehicle control/other small molecules treated group (FIG. 1A-B)
# [8] = OT1 T cells (0.5×10^6 cells/mouse) activated in presence of 10 μM ml^−1 compound
# [9] = inhibitory receptor (FIG. 4F,4G)
structure (smiles),measurement,setting,value
"COCCc1ccc(OCC(O)CNC(C)C)cc1 (centres unmarked) [Metroprolol, reference compound]",logD,[1],-0.34
"CC(C)[N+](C)(CCOC(=O)C1c2ccccc2Oc2ccccc21)C(C)C [Propantheline, reference compound]","remaining at 2 h, 1 µM",Plasma stability assay,0.33%
"COc1ccc(-c2nc3c(NS(=O)(=O)c4ccc(C)cc4)ncnc3n2C)cc1 [Compound 19, N-(8-(4-methoxyphenyl)-9-methyl-9H-purin-6-yl)-4-methylbenzenesulfonamide]","remaining at 2 h, 1 µM",Plasma stability assay,85.8%
same,IFN-γ production from CD8^+ T cells,CD8^+ T cells [2]; [7],highest
same,TNF-α production from CD8^+ T cells,CD8^+ T cells [2]; [7],highest
same,improving effector cytokine production from CD8^+ T cells (ranking among the small molecules),CD8^+ T cells [2]; 72 hrs activation,most promising
same,persistence of CD8+Vβ5.1+ OT1 T cells,EL4-OVA tumors; FIG. 4B,improved persistence
same,survival of tumor-bearing mice,EL4-OVA tumors; [8],markedly enhanced the survival
same,tumor growth control,EL4-OVA tumors; [8],could efficiently control tumor growth
same,CD38 expression on CD8+Vβ5.1+ OT1 T cells,EL4-OVA tumors; [9],reduced expression
same,PD1 expression on CD8+Vβ5.1+ OT1 T cells,EL4-OVA tumors; [9],reduced expression
same,TIM3 expression on CD8+Vβ5.1+ OT1 T cells,EL4-OVA tumors; [9],reduced expression
same,number of circulating CD8^+Vβ5.1^+ T cells,"EL4-OVA tumors; tumor-bearing host, vs mice that received DMSO treated cells",higher number
same,mTORC1 activation,mTORC1; conclusion from pS6 and 4EBP1 results in CD8^+ T cells,potent mTOR-Cl activator
same,4EBP1 (p4EBP1) expression,mTORC1; downstream substrate of mTORC1 (FIG. 3D),significant high expression
same,pS6 level inside CD8^+ T cells,mTORC1; flow cytometry and western blot (FIG. 3A-C),marked increase
same,glucose uptake,CD8^+ T cells [3],promoted glucose uptake
same,optimum dosage for inducing effector cytokine (IFNγ) production from CD8^+ T cells,[4],10 µM
same,EC50,"[4]; Homo sapiens, T-cell, normalized to vehicle (DMSO)",4.09 µM
same,IFN-γ production level from CD8^+ T cell,CD8^+ T cells [5],significant increase
same,TNF-α production level from CD8^+ T cell,CD8^+ T cells [5],significant increase
same,hepatic extraction ratio,[6],0.0077
same,logD,[1],0.96
"CCc1ccc(S(=O)(=O)Nc2ncnc3c2nc(-c2ccc(OC)cc2)n3C)cc1 [Compound 22, 4-ethyl-N-(8-(4-methoxyphenyl)-9-methyl-9H-purin-6-yl)benzenesulfonamide]","remaining at 2 h, 1 µM",Plasma stability assay,3.9%
same,hepatic extraction ratio,[6],0.318
same,logD,[1],4.32
